Assay results taken from the NIST ThermoML archive (doi:10.1021/je7003929).

Test: xn = mol fraction of the nth substance listed
Settings: Liquid, Vibrating tube method

c1ccc2sccc2c1 [benzo[b]thiophene] + CCCCCC
Settings	mass density [kg/m3]
313.13 K, 11018 kPa, x2 = 0.7491	771.6
313.13 K, 12036 kPa, x2 = 0.7491	772.6
313.13 K, 13021 kPa, x2 = 0.7491	773.5
313.13 K, 14007 kPa, x2 = 0.7491	774.3
313.13 K, 15006 kPa, x2 = 0.7491	775.2
313.13 K, 16012 kPa, x2 = 0.7491	776
313.13 K, 17016 kPa, x2 = 0.7491	776.9
313.13 K, 18000 kPa, x2 = 0.7491	777.8
313.13 K, 19017 kPa, x2 = 0.7491	778.6
313.13 K, 20030 kPa, x2 = 0.7491	779.5
313.15 K, 1025 kPa, x2 = 0.4495	910.7
313.15 K, 2010 kPa, x2 = 0.4495	911.5
313.15 K, 3028 kPa, x2 = 0.4495	912.4
313.15 K, 4011 kPa, x2 = 0.4495	913.2
313.15 K, 5013 kPa, x2 = 0.4495	914
313.15 K, 6021 kPa, x2 = 0.4495	914.8
313.15 K, 7010 kPa, x2 = 0.4495	915.6
313.15 K, 8033 kPa, x2 = 0.4495	916.4
313.15 K, 9029 kPa, x2 = 0.4495	917.2
313.15 K, 10015 kPa, x2 = 0.4495	918
313.15 K, 11018 kPa, x2 = 0.4495	918.8
313.15 K, 12012 kPa, x2 = 0.4495	919.5
313.15 K, 13010 kPa, x2 = 0.4495	920.3
313.15 K, 14022 kPa, x2 = 0.4495	921
313.15 K, 15019 kPa, x2 = 0.4495	921.8
313.15 K, 16008 kPa, x2 = 0.4495	922.6
313.15 K, 17018 kPa, x2 = 0.4495	923.3
313.15 K, 18027 kPa, x2 = 0.4495	924.1
313.15 K, 19006 kPa, x2 = 0.4495	924.8
313.15 K, 20006 kPa, x2 = 0.4495	925.5
322.05 K, 1026 kPa, x2 = 0.4495	901.9
322.05 K, 2020 kPa, x2 = 0.4495	902.8
322.05 K, 3015 kPa, x2 = 0.4495	903.7
322.05 K, 4003 kPa, x2 = 0.4495	904.5
322.05 K, 5014 kPa, x2 = 0.4495	905.4
322.05 K, 6021 kPa, x2 = 0.4495	906.3
322.05 K, 7015 kPa, x2 = 0.4495	907.2
322.05 K, 8009 kPa, x2 = 0.4495	908
322.05 K, 9028 kPa, x2 = 0.4495	908.9
322.05 K, 10013 kPa, x2 = 0.4495	909.7
322.05 K, 11021 kPa, x2 = 0.4495	910.5
322.05 K, 12023 kPa, x2 = 0.4495	911.3
322.05 K, 13008 kPa, x2 = 0.4495	912.1
322.05 K, 14021 kPa, x2 = 0.4495	913
322.05 K, 15012 kPa, x2 = 0.4495	913.7
322.05 K, 16018 kPa, x2 = 0.4495	914.5
322.05 K, 17012 kPa, x2 = 0.4495	915.3
322.05 K, 18012 kPa, x2 = 0.4495	916.1
322.05 K, 19007 kPa, x2 = 0.4495	916.9
322.05 K, 20015 kPa, x2 = 0.4495	917.7
322.89 K, 1017 kPa, x2 = 0.2588	1000
322.89 K, 2023 kPa, x2 = 0.2588	1000.8
322.89 K, 3021 kPa, x2 = 0.2588	1001.5
322.89 K, 4016 kPa, x2 = 0.2588	1002.3
322.89 K, 5026 kPa, x2 = 0.2588	1003.1
322.89 K, 6030 kPa, x2 = 0.2588	1003.8
322.89 K, 7028 kPa, x2 = 0.2588	1004.6
322.89 K, 8018 kPa, x2 = 0.2588	1005.3
322.89 K, 9014 kPa, x2 = 0.2588	1006
322.89 K, 10021 kPa, x2 = 0.2588	1006.7
322.89 K, 11005 kPa, x2 = 0.2588	1007.5
322.89 K, 12022 kPa, x2 = 0.2588	1008.2
322.89 K, 13013 kPa, x2 = 0.2588	1008.9
322.89 K, 14012 kPa, x2 = 0.2588	1009.6
322.89 K, 15017 kPa, x2 = 0.2588	1010.3
322.89 K, 16016 kPa, x2 = 0.2588	1011
322.89 K, 17002 kPa, x2 = 0.2588	1011.7
322.89 K, 18014 kPa, x2 = 0.2588	1012.4
322.89 K, 19024 kPa, x2 = 0.2588	1013.1
322.89 K, 20016 kPa, x2 = 0.2588	1013.8
